Two molecules from patent publication US8445468B2, “(20S,22E)-2-methylene-19-nor-22-ene-1α,25-dihydroxyvitamin D3” (Wisconsin Alumni Research Foundation, priority 2009, dated 2013) can be followed below.

Where two headings read alike, the source gives them in different places.

Experiment [1] deals with vitamin D-deficient rats. The experiment is described as follows: Bone calcium mobilization (serum calcium). It counts as in vivo, rat. Conditions: FIG. 4; for serum calcium (bone calcium mobilization): 260 pmol/day ip for 4 consecutive days, rats on low calcium diet (0.02%); for bone calcium mobilization activity (in words): vitamin D-deficient rats, low calcium diet. The procedure: (§1) Male, weanling Sprague-Dawley rats were placed on Diet 11 (0.47% Ca) diet +AEK oil for one week followed by Diet 11 (0.02% Ca)+AEK oil for 3 weeks. The rats were then switched to a diet containing 0.47% Ca for one week followed by two weeks on a diet containing 0.02% Ca. Dose administration began during the last week on 0.02% calcium diet. Four consecutive ip doses were given approximately 24 hours apart. Twenty-four hours after the last dose, blood was collected from the severed neck and the concentration of serum calcium determined as a measure of bone calcium mobilization. The first 10 cm of the intestine was also collected for intestinal calcium transport analysis using the everted gut sac method.

For a further experiment, the system named is HL-60 cells. The experiment can be described thus: HL-60 differentiation (nitro blue tetrazolium reduction). Conditions: FIG. 2; for EC50: differentiation of HL-60 cells into monocytes, read-out: EC50, HL-60 cell differentiation. It counts as cell-based, human. The procedure: The study drugs were dissolved in ethanol and the concentrations determined using UV spectrophotometry. Serial dilutions were prepared so that a range of drug concentrations could be tested without changing the final concentration of ethanol (≦0.2%) present in the cell cultures.
Human promyelocytic leukemia (HL60) cells were grown in RPMI-1640 medium containing 10% fetal bovine serum. The cells were incubated at 37° C. in the presence of 5% CO2.
HL60 cells were plated at 1.2×10^5 cells/ml. Eighteen hours after plating, cells in duplicate were treated with drug. Four days later, the cells were harvested and a nitro blue tetrazolium reduction assay was performed (Collins et al., 1979; J. Exp. Med. 149:969-974). The percentage of differentiated cells was determined by counting a total of 200 cells and recording the number that contained intracellular black-blue formazan deposits. Verification of differentiation to monocytic cells was determined by measuring phagocytic activity (data not shown).

The test system of experiment [2] is 24-hydroxylase (24Ohase) gene promoter. The experiment can be described thus: In vitro transcription assay, luciferase reporter in ROS 17/2.8 (bone) cells. The note with it: FIG. 3; for EC50: ROS 17/2.8 cells, 16 h after dosing, read-out: EC50, transcriptional activity in bone cells (24-hydroxylase gene). The format is cell-based. As to the method:
Transcription activity was measured in ROS 17/2.8 (bone) cells that were stably transfected with a 24-hydroxylase (24Ohase) gene promoter upstream of a luciferase reporter gene (Arbour et al., 1998). Cells were given a range of doses. Sixteen hours after dosing the cells were harvested and luciferase activities were measured using a luminometer.
RLU=relative luciferase units.
A general note: A reporter such as luciferase makes a cellular process visible.

Experiment [3] deals with T1, full-length recombinant rat vitamin D receptor (Rattus norvegicus, UniProt P13053).
T1 construct: Full-length recombinant rat receptor was expressed in E. coli BL21 (DE3) Codon Plus RIL cells; histidine tag (C); made in house; host or cells: E. coli BL21 (DE3) Codon Plus RIL
T1 sequence (P13053 1-423): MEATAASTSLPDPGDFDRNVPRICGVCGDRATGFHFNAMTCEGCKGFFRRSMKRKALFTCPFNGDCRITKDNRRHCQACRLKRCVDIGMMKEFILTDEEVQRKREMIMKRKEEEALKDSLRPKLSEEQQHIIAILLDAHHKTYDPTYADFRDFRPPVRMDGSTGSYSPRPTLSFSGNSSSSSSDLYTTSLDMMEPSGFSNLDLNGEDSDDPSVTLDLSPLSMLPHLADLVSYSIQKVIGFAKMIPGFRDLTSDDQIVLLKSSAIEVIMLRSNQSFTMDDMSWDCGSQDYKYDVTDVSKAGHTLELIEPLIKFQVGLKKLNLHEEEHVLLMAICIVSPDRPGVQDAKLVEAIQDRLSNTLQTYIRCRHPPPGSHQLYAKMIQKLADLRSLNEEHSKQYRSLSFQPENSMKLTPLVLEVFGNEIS
The experiment can be described thus: Vitamin D receptor binding, competition with [3H]-1,25(OH)2D3. Conditions: FIG. 1. The procedure: Full-length recombinant rat receptor was expressed in E. coli BL21 (DE3) Codon Plus RIL cells and purified to homogeneity using two different column chromatography systems. The first system was a nickel affinity resin that utilizes the C-terminal histidine tag on this protein. The protein that was eluted from this resin was further purified using ion exchange chromatography (S-Sepharose Fast Flow). Aliquots of the purified protein were quick frozen in liquid nitrogen and stored at −80° C. until use. For use in binding assays, the protein was diluted in TEDK50 (50 mM Tris, 1.5 mM EDTA, pH7.4, 5 mM DTT, 150 mM KCl) with 0.1% Chaps detergent. The receptor protein and ligand concentration were optimized such that no more than 20% of the added radiolabeled ligand was bound to the receptor.
Radiolabeled and unlabeled ligands were added to 100 mcl of the diluted protein at a final ethanol concentration of ≦10%, mixed and incubated overnight on ice to reach binding equilibrium. The following day, 100 mcl of hydroxylapatite slurry (50%) was added to each tube and mixed at 10-minute intervals for 30 minutes. […] Total binding was determined from the tubes containing only radiolabeled ligand.

For experiment [4], the system named is vitamin D-deficient rats. The experiment is described as follows: Intestinal calcium transport (everted gut sac method). The format is in vivo, rat. The note with it: FIG. 5. As to the method:
as §1

Consider `C=C1/C(=C\C=C2/CCC[C@]3(C)[C@@H]([C@H](C)CCCC(C)(C)O)CC[C@@H]23)C[C@@H](O)C[C@@H]1O` [1,25(OH)2D3, 1α,25-dihydroxyvitamin D3], for which, in the experiment on vitamin D-deficient rats [1], the “serum calcium (bone calcium mobilization)” value is recorded as 6.1 mg/dL and the “bone calcium mobilization activity (in words)” value is given as “increased serum calcium levels at all dosages”. For the same molecule, the EC50 in the experiment on HL-60 cells worked out at 2 nM. In addition, the concentration giving a half-maximal response (EC50) in experiment [2] amounted to 0.2 nM.

Turning to `C=C1[C@H](O)CC(=C/C=C2\CCC[C@]3(C)[C@@H]([C@@H](C)/C=C/CC(C)(C)O)CC[C@@H]23)C[C@H]1O` [Compound N-23, (20S,22E)-2-Methylene-19-nor-22-ene-1α,25-dihydroxyvitamin D3], in the experiment on vitamin D-deficient rats [1], the “serum calcium (bone calcium mobilization)” value is reported as 6.8 mg/dL and the “bone calcium mobilization activity (in words)” value was “slightly more bone calcium mobilization activity”. For the same molecule, in the experiment on HL-60 cells (Homo sapiens), the EC50 came out at 0.1 nM. Further, in the experiment on HL-60 cells (fold more potent than 1,25(OH)2D3), the “potency on HL-60 cell differentiation relative to 1,25(OH)2D3” value is reported as “about 10 times”. The “affinity to the nuclear vitamin D receptor compared to 1,25-(OH)2D3 (in words)” value in experiment [3] (full length recombinant rat VDR) was “same affinity”. The Ki in experiment [3] (full-length recombinant rat vitamin D receptor, read-out: Ki, competition with [3H]-1,25(OH)2D3 for binding to VDR) was 0.06 nM. Also, the EC50 in experiment [2] turned out to be 0.02 nM. Further, the “potency in increasing transcription of the 24-hydroxylase gene relative to 1,25(OH)2D3” value in experiment [2] (bone cells, fold more potent than 1,25(OH)2D3) is “about 10 times”. For the same molecule, the “intestinal calcium transport activity compared to 1,25(OH)2D3” value in the experiment with vitamin D-deficient rats [4] (32 pmol/day for 4 consecutive days) is given as “less activity”. The “intestinal calcium transport, dose dependence (in words)” value with vitamin D-deficient rats [4] (vitamin D-deficient rats) is listed as “dose dependent manner”.

For orientation: EC50 means the midpoint of the concentration-response curve. One may read the Ki as a dissociation constant, usually derived from enzyme kinetics or from competition with a known ligand.
